Like-named read-outs stand apart in the source and are kept apart here.
Columns and labels:
MCF/MX cells = test: Resistance of MCF/MX cells to camptothecins; format: cell-based
S1-B1-20 cells [1] = test system: S1-B1-20 cells
Description: (§7) Cell-associated radioactivity was measured at the indicated times. Values are mean percentage of drug remaining (triplicate determinations) ± standard deviation.
(§8) After 1 hour, cells were prepared for analysis by scintillation counting. Values shown are mean percentage of drug remaining (triplicate determinations) ± standard deviation.

S1-M1-3.2 cells [2] = test system: S1-M1-3.2 cells
Description: as §7, §8

S1 cells [3] = test system: S1 cells
Description: as §7, §8

S1-M1-3.2 cells [4] = test: Cytotoxicity of antitumor agents, 3-day SRB assay, mitoxantrone-selected cells; format: cell-based, human; conditions: relative to S1; 2-7 independent experiments
Description: Cells were cultured for three days in the presence of the antitumor agent (triplicate points per dose). Following a 3-day growth period, cells were fixed in 10% trichloroacetic acid (TCA) for 1 hour, washed extensively with water, and cell-associated protein was stained using 0.1% sulforhodamine B (SRB), a protein binding reagent [Rubinstein et al., Journal of the National Cancer Institute 82, 1113-1118 (1990) and Skehan et al., Journal of the National Cancer Institute 82, 1107-1112 (1990)]. Excess reagent was removed by washing plates in 5% acetic acid, the dye was solubilized in 10 mM Tris base, and absorbance determined in a UV Max spectrophotometer (Molecular Devices, Menlo Park, Calif.) at 540 nm. Cell survival was estimated relative to control wells (no drugs). EC50 values (μM) were estimated from cytotoxicity curves. For S1, the values shown [mean ±SE (number of independent observations)] are taken from Zhang et al., “P-Glycoprotein Mediates Profound Resistance to Bisantrene,” Oncol. Res., 6:291-301, 1994. Values for S1-M1-3.2 are compiled from 2-7 independent experiments.

MCF-7 cells = format: cell-based, human; conditions: 1 μM daunorubicin, 1 hour retention phase
Description: (§1) All incubations were carried out in the absence or presence of FTC (1 or 5 μM).

MCF-7/BCRP cells [5] = format: cell-based, human
Description: as §1

S1-M1-3.2 cells [6] = test: Drug accumulation analysis with [14C] drug; format: cell-based, human; conditions: for Drug Accumulation, no FTC: S1-M1-3.2 cells, [14C] drug, 90 minutes at 37° C.; for drug accumulated compared with the parental cells: S1-M1-3.2 versus S1, no FTC
Description: (§2) To determine the mechanism of resistance, drug resistant and sensitive cells were incubated with radioactive analogues of antitumor agents and cell-associated radioactivity was measured by scintillation counting. Alternatively, surrogates of chemotherapeutic drugs may be used. The surrogate has no antitumor activity itself but interacts with the cancer cell proteins such as P-gp or MRP in a similar manner as an anticancer drug. The surrogate chemotherapeutic drug would have a property such as fluorescence which is useful for determining the drug resistance mechanisms such as efflux.
(§3) Cells were plated in 60 mm dishes (1×10^6 cells per dish) or in 24 well clusters (2 ×10^5 cells per well) and allowed to grow for 1-2 days. […] Drugs used were [^14C]-mitoxantrone (Amersham, 1 or 5 μM; specific activity 66 mCi/mmol) or [^14C]-doxorubicin (Amersham, 0.5 or 3 μM; specific activity 50-62 mCi/mmol ). […] Unbound drug was removed by washing twice in ice-cold phosphate buffered saline (PBS), cells were solubilized in 2 N NaOH at 37° C. for 1-2 hours, and analyzed by scintillation counting. Results were normalized to cell protein content measured by a Lowry assay.
(§4) The cells were then washed, solubilized, and counted in a scintillation counter. Values are mean disintegration per minute per μg protein of triplicate determinations ± standard deviation.

S1-B1-20 cells [7] = test: Drug accumulation analysis with [14C] drug; format: cell-based, human; conditions: [14C] drug, 90 minutes at 37° C.
Description: as §2, §3, §4

S1 cells [8] = test: Drug accumulation analysis with [14C] drug; format: cell-based, human; conditions: [14C] drug, 90 minutes at 37° C.
Description: as §2, §3, §4

HL-60/AR cells = format: cell-based
Description: (§5) Cell survival was estimated after 3 days using the SRB assay. Cell survival was determined by the SRB assay and EC50 values were determined from toxicity curves. The dose modifying factor (DMF) is the ratio of EC50 values obtained in the absence and presence of reversal agent. Maximum DMF values (shown in parentheses) is the ratio of EC50 values of resistant and sensitive cells in the absence of the reversal agent. This value is obtained when resistance is reversed completely, and is the equivalent of the relative resistance.

MCF 7/mtxR cells = format: cell-based, human
Description: as §5
(§6) In order to determine the utility of FTC as a reversal agent in other multidrug resistant cell lines, FTC was tested in two breast cancer cell lines which show a multidrug resistant phenotype with no overexpression of P-gp or MRP.

MCF-7/BCRP cells [9] = test: Dose modifying factor of FTC in BCRP-transfected cells; format: cell-based, human; conditions: MCF-7/BCRP versus MCF-7, no reversal agent
Description: Cell survival was estimated after 3 days using the SRB assay, and EC50 values were determined from cytotoxicity curves.

S1-M1-3.2 cells [10] = test: Dose modifying factor of FTC (SRB, EC50 ratio); format: cell-based, human; conditions: S1-M1 versus S1, no reversal agent
Description: as §5

MCF 7/AdVp cells = format: cell-based, human
Description: as §5, §6

[11] = 1 hour efflux with energy depletor, growth medium = 100

## CC[C@@]1(O)C(=O)OCc2c1cc1n(c2=O)Cc2cc3c(N)cccc3nc2-1 [9-amino camptothecin]
MCF/MX cells
  resistance of MCF/MX cells: 120 fold

## [N-]=[N+]=[N-].[Na+] [PBS + sodium azide, sodium azide]
S1-B1-20 cells [1]; [11]
  % mitoxantrone remaining in cell line: 217 ± 6%
S1-M1-3.2 cells [2]; [11]
  % mitoxantrone remaining in cell line: 285 ± 43%
S1 cells [3]; [11]
  % mitoxantrone remaining in cell line: 137 ± 14%

## CC[C@@]1(O)C(=O)OCc2c1cc1n(c2=O)Cc2cc3ccccc3nc2-1 [camptothecin]
MCF/MX cells
  resistance of MCF/MX cells: 3.2 fold
S1-M1-3.2 cells [4]
  S1-M1-3.2 (relative resistance): 2

## COc1cccc2c1C(=O)c1c(O)c3c(c(O)c1C2=O)C[C@@](O)(C(C)=O)C[C@@H]3O[C@H]1C[C@H](N)[C@H](O)[C@H](C)O1 [daunorubicin, reference compound]
MCF-7 cells
  daunorubicin retention, Channel Number (fluorescence units), No FTC: 15.2 ± 0.39 fluorescence units
MCF-7/BCRP cells [5]
  daunorubicin retention, Channel Number (fluorescence units), No FTC: 6.8 ± 0.33 fluorescence units

## COc1cccc2c1C(=O)c1c(O)c3c(c(O)c1C2=O)C[C@@](O)(C(=O)CO)C[C@@H]3O[C@H]1C[C@H](N)[C@H](O)[C@H](C)O1 [doxorubicin, reference compound]
S1-M1-3.2 cells [6]
  Drug Accumulation, no FTC: 19 ± 3 DPM/μg protein
  drug accumulated compared with the parental cells: 17%
S1-B1-20 cells [7]
  Drug Accumulation, no FTC: 23 ± 1 DPM/μg protein
S1 cells [8]
  Drug Accumulation, no FTC: 114 ± 11 DPM/μg protein
MCF-7/BCRP cells [5]; MCF-7/BCRP, 1 μM [14C]-doxorubicin, 1 hour retention phase
  [^14C] doxorubicin retention, No FTC: 5.4 ± 0.48 DPM per microgram protein

## O=C1c2c(O)ccc(O)c2C(=O)c2c(NCCNCCO)ccc(NCCNCCO)c21 [mitoxantrone]
HL-60/AR cells
  Maximum DMF (in parentheses; relative resistance to the antitumor agent): 3.3 (53)
MCF 7/mtxR cells
  Maximum DMF (in parentheses; relative resistance to the antitumor agent): 114 (2090)
S1-M1-3.2 cells [6]
  Drug Accumulation, no FTC: 996 ± 57 DPM/μg protein
  drug accumulated compared with the parental cells: 41%
S1-B1-20 cells [7]
  Drug Accumulation, no FTC: 1086 ± 100 DPM/μg protein
S1 cells [8]
  Drug Accumulation, no FTC: 2430 ± 252 DPM/μg protein
MCF-7/BCRP cells [9]
  Maximum DMF (in parentheses; relative resistance to the antitumor agent): 35.1
S1-B1-20 cells [1]; 0 h
  % mitoxantrone remaining over time (hours): 100 ± 5%
S1-B1-20 cells [1]; 0.5 h
  % mitoxantrone remaining over time (hours): 58 ± 4%
S1-B1-20 cells [1]; 1 h
  % mitoxantrone remaining over time (hours): 45 ± 10%
S1-B1-20 cells [1]; 2 h
  % mitoxantrone remaining over time (hours): 41 ± 3%
S1-B1-20 cells [1]; 4 h
  % mitoxantrone remaining over time (hours): 39 ± 3%
S1-M1-3.2 cells [10]
  Maximum DMF (in parentheses; relative resistance to the antitumor agent): 1435
S1-M1-3.2 cells [2]; 0 h
  % mitoxantrone remaining over time (hours): 100 ± 2%
S1-M1-3.2 cells [2]; 0.5 h
  % mitoxantrone remaining over time (hours): 51 ± 6%
S1-M1-3.2 cells [2]; 1 h
  % mitoxantrone remaining over time (hours): 44 ± 1%
S1-M1-3.2 cells [2]; 2 h
  % mitoxantrone remaining over time (hours): 45 ± 3%
S1-M1-3.2 cells [2]; 4 h
  % mitoxantrone remaining over time (hours): 31 ± 2%
S1-M1-3.2 cells [4]
  S1-M1-3.2 (relative resistance): 1435
S1 cells [3]; 0 h
  % mitoxantrone remaining over time (hours): 100 ± 6%
S1 cells [3]; 0.5 h
  % mitoxantrone remaining over time (hours): 99 ± 17%
S1 cells [3]; 1 h
  % mitoxantrone remaining over time (hours): 101 ± 3%
S1 cells [3]; 2 h
  % mitoxantrone remaining over time (hours): 100 ± 11%
S1 cells [3]; 4 h
  % mitoxantrone remaining over time (hours): 95 ± 13%

## CC(=O)O[C@H]1C(=O)[C@@]2(C)[C@H]([C@H](OC(=O)c3ccccc3)[C@]3(O)C[C@H](OC(=O)[C@H](O)[C@@H](NC(=O)c4ccccc4)c4ccccc4)C(C)=C1C3(C)C)[C@]1(OC(C)=O)CO[C@@H]1C[C@@H]2O [paclitaxel, reference compound]
HL-60/AR cells
  Maximum DMF (in parentheses; relative resistance to the antitumor agent): 2.6 (5.1)
MCF 7/mtxR cells
  Maximum DMF (in parentheses; relative resistance to the antitumor agent): 1.1 (2.0)
MCF 7/AdVp cells
  Maximum DMF (in parentheses; relative resistance to the antitumor agent): 0.7 (10.7)
MCF-7/BCRP cells [9]
  Maximum DMF (in parentheses; relative resistance to the antitumor agent): 2.7
S1-M1-3.2 cells [10]
  Maximum DMF (in parentheses; relative resistance to the antitumor agent): 6
S1-M1-3.2 cells [4]
  S1-M1-3.2 (relative resistance): 6

## CC[C@@]1(O)C(=O)OCc2c1cc1n(c2=O)Cc2cc3c(CN(C)C)c(O)ccc3nc2-1 [topotecan, reference compound]
MCF-7/BCRP cells [9]
  Maximum DMF (in parentheses; relative resistance to the antitumor agent): 3.3
S1-M1-3.2 cells [10]
  Maximum DMF (in parentheses; relative resistance to the antitumor agent): 41
S1-M1-3.2 cells [4]
  S1-M1-3.2 (relative resistance): 41

Source: patent US20020169111A1, “Reversal of multidrug resistance in human colon carcinoma cells” (American Cyanamid Comany, priority 1998, published 2002)
